In PMC11314199, “Design, Synthesis, and Biological Evaluations of Novel Thiazolo[4,5-d]pyrimidine Corticotropin Releasing Factor (CRF) Receptor Antagonists as Potential Treatments for Stress Related Disorders and Congenital Adrenal Hyperplasia (CAH)” (Molecules, 2024):
Like-named read-outs stand apart in the source and are kept apart here.

Assays:
human CRF1 receptors [1] = target: T1, human CRF1 receptors (Homo sapiens, UniProt P34998); experiment: Primary screening: inhibition of specific [125I]-Tyr0 sauvagine binding at a single concentration of 100 nM; details: 100 nM test compound; membranes from HEK 293 cells stably expressing CRF1 receptors
T1 construct: expressed in transfected cells
T1 sequence (P34998 24-415): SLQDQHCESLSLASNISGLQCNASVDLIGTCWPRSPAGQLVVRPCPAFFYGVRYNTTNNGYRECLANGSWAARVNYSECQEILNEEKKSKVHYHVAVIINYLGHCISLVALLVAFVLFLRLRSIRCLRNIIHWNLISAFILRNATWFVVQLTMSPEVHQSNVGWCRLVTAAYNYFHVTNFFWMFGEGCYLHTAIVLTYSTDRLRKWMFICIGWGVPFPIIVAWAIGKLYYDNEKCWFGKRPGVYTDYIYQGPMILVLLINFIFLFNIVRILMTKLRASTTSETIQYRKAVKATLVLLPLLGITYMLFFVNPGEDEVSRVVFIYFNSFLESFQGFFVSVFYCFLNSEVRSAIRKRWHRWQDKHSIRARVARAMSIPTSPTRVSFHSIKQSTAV
Method: An investigation of the specific binding was carried out in membrane homogenates extracted from human embryonic kidney (HEK 293) cells stably expressing CRF1 receptors, a standard methodology previously detailed in several of our published works. This experimental approach closely adheres to the original Gkountelias et al. procedure.
The CRF1 receptor binding affinities for final target compounds 1–23 were evaluated. First, the ability of the entire test compounds to inhibit the specific binding of the radiolabelled ligand [^125I]-Tyr^0 sauvagine to membranes from HEK 293 cells stably expressing the CRF1 receptors was evaluated at a single concentration of 100 nM.
Figure 5 % inhibition of [^125I]-Try^0 sauvagine-specific binding by 100 nM of test compounds on membranes from HEK293 stably expressing human CRF1 receptors. In the absence of the test compound, the inhibition is 0%.
In this protocol, a radiolabeled agonist, which is [^125I]-Tyr^0-sauvagine is used. The cell culture medium that was used to grow these cells consisted of DMEM/F12 (1:1) supplemented with 10% bovine calf serum, 3.15 g/L glucose, and […] of the antibiotic geneticin. The cells were then incubated at a temperature of 37 °C with 5% CO2. After a suitable time was given to grow the expected number of cells to the required cell density, the cells were washed with phosphate-buffered saline (PBS) at a neutral pH of 7.2–7.3. This was followed by treatment with 2 mM EDTA containing PBS (PBS/EDTA). The suspension of cells was pitted under centrifugation at a speed of 1000× g for a period of 5 min, after which the resulting pellets were allowed to be homogenized in 1.5 mL of buffer H with the following composition: 20 mM HEPES, 10 mM MgCl2, 2 mM EGTA, 0.2 mg/mL bacitracin antibiotic, and 0.93 mg/mL aprotinin at pH 7.2 at 4 °C. The homogenizer used was a Janke & Kunkel IKA Ultra Turrax T25 homogenizer (IKA Werke GmbH & Co. KG, Staufen, Germany). The homogenates were then put into a centrifuge to be centrifuged at a speed of 16,000× g, for a period of 10 min, at 4 °C. The resulting membrane pellets were again suspended in a homogenizer in 1 mL of buffer B, which is buffer H containing BSA (0.1%) at a pH of 7.2 at 20 °C. After that, the membrane suspensions were diluted using buffer B and 50 μL aliquots of the suspensions and 20–25 pM of the radiolabeled ligand [^125I]-Tyr^0sauvagine with (test) and then without (positive control) the compounds to be evaluated at a single concentration of 100 nM.

human CRF1 receptors [2] = target: T1, human CRF1 receptors; experiment: Competition binding of [125I]-Tyr0 sauvagine under equilibrium conditions (secondary assay); details: [125I]-Tyr0 sauvagine competition, HEK 293 membranes expressing CRF1 receptors
Method: In the second assay, the inhibitory effects measured by the lead compounds were compared to those of the standard drug antalarmin.
Figure 6 Competitive binding isotherms of compounds 2, 5, and 14 (a), compounds 10 and 23 (b), compounds 19 and 20 (c) and 21 and 22 (d) to human CRF1 receptors. Antalarmin was used as a standard drug.
In this competitive binding assay, different and increasing concentrations of the test compounds were used. The final volume of the tubes was adjusted to 0.2 mL using buffer B (the composition mentioned earlier). The test mixtures were then incubated at a temperature of 21 °C for a period of two hours. Then it was filtered through presoaked Whatman 934AH filter papers (in a solution of 0.3% polyethylene imine for 1 h at a temperature of 4 °C). The filter papers were then washed with a solution of 0.5 mL of ice-cold PBS containing 0.01% Triton X-100, and the washing process was repeated three times at pH 7.1. To measure the radioactivity, a gamma radiation counter was utilized. The quantity of membranes used was adjusted to make sure that the specific binding is always equal to or less than 10% of the total concentration of the added radiolabeled sauvagine. The specific [^125I]-Tyr^0-sauvagine binding was defined as the total binding minus the non-specific binding in the presence of 1000 nM of the standard antagonist Antalarmin. Non-linear regression analysis was used for data analysis, and Log IC50 values for the test compounds in comparison to the standard antagonist antalarmin were calculated by fitting the data from the competition studies into a one-site competition model. The statistical analysis was performed using Prism 4.0 (GraphPad Software, San Diego, CA, USA).
Statistical analysis was performed using Prism 4.0 (Graph Pad Software, San Diego, CA, USA). Non-linear regression analysis was used in the competitive binding studies. Log IC50 values were calculated by fitting the data from the competition studies to a one-site competition model.

CRF1R = test system: CRF1R; set-up: method as in PMID 7846062; details: cited from earlier work

Row | Molecule | % inhibition of [125I]-Tyr0 sauvagine-specific binding (human CRF1 receptors [1]) | inhibition at 0.1 µM (human CRF1 receptors [1]) | IC50 (human CRF1 receptors [2]; read-out: IC50) | IC50 (human CRF1 receptors [2]; Log IC50 as printed (negative sign), read-out: Log IC50 ± SE (converted)) | binding affinity to CRF1R relative to binding to CRF2R (CRF1R)
1 | CCCCCN(CCCCC)c1nc(C)nc2c1sc(=NC)n2-c1ccc(C(C)C)cc1Br [Compound 11, 7-(N,N-Dipentylamino)-2-(methylimino)-5-methyl-3-(2-bromo-4-isopropylphenyl)-2,3-dihydrothiazolo[4,5-d]pyrimidine] | reduced activity compared to compounds 10 and 13 |  |  |  | 
2 | CCCN(CCC)c1nc(C)nc2c1sc(=NC)n2-c1ccc(OC)cc1C [Compound 21, 7-(N,N-Dipropylamino)-2-(methylimino)-5-methyl-3-(2-methyl-4-methoxylphenyl)-2,3-dihydrothiazolo[4,5-d]pyrimidine] |  | > 50% | 13.1 nM |  | 
3 | CN=c1sc2c(N(CCOC)CCOC)nc(C)nc2n1-c1ccc(C(C)C)cc1Br [Compound 10, 7-(N,N-Bis(2-methoxyethyl)amino)-2-(methylimino)-5-methyl-3-(2-bromo-4-isopropylphenyl)-2,3-dihydrothiazolo[4,5-d]pyrimidine] |  | > 50% | 31 nM |  | 
4 | CCCN(CCC)c1nc(C)nc2c1sc(=NC)n2-c1ccc(Cl)cc1Cl [Compound 2, 7-(N,N-Dipropylamino)-2-(methylimino)-5-methyl-3-(2,4-dichlorophenyl)-2,3-dihydrothiazolo[4,5-d]pyrimidine] |  | > 50% | 6.1 nM | 6.03 nM | 
5 | CCCCN(CC)c1nc(C)nc2c1sc(=NC)n2-c1ccc(OC)cc1C [Compound 20, 7-(N-Butyl-N-ethylamino)-2-(methylimino)-5-methyl-3-(2-methyl-4-methoxylphenyl)-2,3-dihydrothiazolo[4,5-d]pyrimidine] |  | > 50% | 9.16 nM |  | 
6 | Corticotropin-releasing factor [CRF] |  |  |  |  | almost eight times higher
7 | CCCN(CC1CC1)c1nc(C)nc2c1s/c(=N\C)n2-c1ccc(OC)cc1C [Compound 22, 7-(N-Propyl-N-(cyclopropylmethyl))amino-2-(methylimino)-5-methyl-3-(2-methyl-4-methoxylphenyl)-2,3-dihydrothiazolo[4,5-d]pyrimidine] | significantly higher inhibitory effects than compounds 9 and 17 | > 50% | 91.6 nM |  | 
8 | CCCCN(CC)c1nc(C)nc2c1c(C)c(C)n2-c1c(C)cc(C)cc1C [antalarmin, reference compound] |  |  | 16.6 nM |  | 
9 | CCC(CC)Nc1nc(C)nc2c1sc(=NC)n2-c1ccc(OC)cc1C [Compound 23, 7-(N-Pentan-3-yl)amino-2-(methylimino)-5-methyl-3-(2-methyl-4-methoxylphenyl)-2,3-dihydrothiazolo[4,5-d]pyrimidine] |  | > 50% | 111 nM |  | 
10 | CCCCN(CC)c1nc(C)nc2c1sc(=NC)n2-c1ccc(C)cc1C [Compound 14, 7-(N-Butyl-N-ethylamino)-2-(methylimino)-5-methyl-3-(2,4-dimethylphenyl)-2,3-dihydrothiazolo[4,5-d]pyrimidine] |  | > 50% | 144 nM |  | 
11 | CCCN(CC1CC1)c1nc(C)nc2c1s/c(=N\C)n2-c1ccc(Cl)cc1Cl [Compound 5, 7-(N-Propyl-N-(cyclopropylmethyl))amino-2-(methylimino)-5-methyl-3-(2,4-dichlorophenyl)-2,3-dihydrothiazolo[4,5-d]pyrimidine] | significantly higher inhibitory effects than compounds 9 and 17 | > 50% | 11.1 nM |  | 
12 | CCCC(CCC)Nc1nc(C)nc2c1sc(=NC)n2-c1ccc(C)cc1C [Compound 19, 7-(N-Heptan-4-yl)amino-2-(methylimino)-5-methyl-3-(2,4-dimethylphenyl)-2,3-dihydrothiazolo[4,5-d]pyrimidine] |  | > 50% | 41.1 nM |  | 
